From patent US8163939B2, “Ascorbic acid derivative or salt thereof, production method thereof, and cosmetic” (Seikwa Kasei Company, Limited, priority 2007, dated 2012) come the findings set out here.

The nature of data set [1]: Moisturizing test: moisturizing effect by water retention force. The format is physicochemical. The procedure: A sample shown later was dried, and the dried sample was spread in an amount of about 0.4 g (this weight is represented by W0) on the bottom of a weighing bottle (diameter: 3.6 cm, height excluding lid: 1.8 cm) so as to give uniform thickness. The sample contained in the weighing bottle was allowed to stand still in a constant humidity and constant temperature vessel (ENVIROS KCL-1000, TOKYO RIKAKIKAI CO, LTD) under environments of 25° C. and 65% RH. The weight was measured periodically, waiting until sufficient moisture absorption to attain equilibrium of weight increase (about 48 hours). Thereafter, the sample was transferred to under environments of 25° C. and 20% RH (in sealed vessel containing a saturated CH3COOK aqueous solution filled in the bottom part). From the weight after 24 hours (this weight is represented by W1), the amount of retained water per 1 g of the dried sample was calculated according to the following formula. (W1−W0)/W0
From the water amount thus calculated, the moisturizing effect was judged based on the following judging criterion, and the results are shown in Table 43.
Three compounds: 2,3-di-O-glyceryl ascorbic acid, 2,3-di-O-phenylglyceryl ascorbic acid, and glycerin, and
Six compounds: ascorbic acid, ascorbic acid glucoside, 2-O-glyceryl ascorbic acid, 3-O-glyceryl ascorbic acid, 3-O-butylglyceryl ascorbic acid and 3-O-octylglyceryl ascorbic acid, which were adjusted to pH7 with a dilute sodium hydroxide aqueous solution and concentrated.
◯: 25 mg or more and less than 40 mg
Δ: 10 mg or more and less than 25 mg

Data set [2] relates to B16 melanoma 4A5 cell. The experiment in a line: Whitening test: theophylline-induced melanine production in B16 melanoma 4A5 cells.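 Further: grades: ± under 20% + 20-40% ++ 40-70% +++ 70-100% suppression.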 The format is cell-based, mouse. To be noted: sample at a concentration of 100 μM or less; theophylline-induced melanine production; 3 days culture; N=4. On the procedure:
As a test for a whitening effect, evaluation of the action of B16 melanoma 4A5 cell on theophylline-induced melanine production was carried out on an ascorbic acid derivative of the present invention, according to the following procedure. The same evaluation was carried out also on ascorbic acid, known compounds: ascorbic acid salts, and ascorbic acid derivatives, as comparison. The results are shown in Tables 38 to 40. • (1) B16 mouse melanoma 4A5 strain was sowed onto a 48-well plate at a cell density of 2.0×10^4 cells/well. • (2) Culturing was performed for 24 hours with Dulbecco's Modified Eagle's medium (manufactured by SIGMA. Hereinafter, abbreviated as D-MEM) containing 10% fetal bovine serum (manufactured by Roshe Diagnostics). Then, it was changed to 0.2 mM theophylline and a 10% fetal bovine serum-containing D-MEM which contains a sample of given concentration. • (3) After culturing for 3 days in the co-existence of a sample, the medium was removed using an aspirator. Then, after distilled water was added, cells were broken by an ultrasonic wave. • (4) Thereafter, the amount of protein was determined using BCA protein assay kit (manufactured by PIERCE), and the produced amount of melanine was measured by an alkali solubilizing method. To the cell-destructed solution was added sodium hydroxide so as to give a final concentration of 2N and the mixture was dissolved by heating (60° C., 15 minutes), then, the absorbance at 450 nm was measured using a micro plate reader. The melanine amount was calculated from a calibration curve made using synthetic melanine (SIGMA) as a standard. The melanine amount per unit protein was calculated by dividing the melanine amount by the protein amount. • (5) The melanine production suppressing rate was calculated according to the following formula. Melanine production suppressing rate (%)=[1−(A−B)/(C−B)]×100 [wherein, A represents the melanine amount per unit protein (g/g) in adding a sample, B represents the melanine amount per unit protein (g/g) in the normal group, and C represents the melanine amount per unit protein (g/g) in the control group.]
In the following Tables, the melanine production suppressing rate in measuring a sample at a concentration of 100 μM or less is expressed as described below. The measurement was carried out at N=4.

Data set [3] can be described thus: Stability Test 1: 2% aqueous solution, pH7, room temperature, 4 weeks (residual rate, odor, coloration). In kind it is physicochemical. The procedure:
(§1) Aqueous solutions (2%) of various test samples were adjusted to pH7 with a dilute sodium hydroxide aqueous solution, and charged into 50 mL screw tubes, and the tubes were sealed and stored at room temperature for 4 weeks. Thereafter, HPLC measurement were performed (using liquid chromatography manufactured by Tosoh Corp.) and the residual rate was obtained based on the peak area. The residual rate, odor(odor change) and degree of coloration were evaluated based on the following methods and standards, and the results are shown in Table 41.
◯: 80% or more and less than 90%
Δ: 60% or more and less than 80%
X: 20% or more and less than 60%
It was evaluated according to the following criterion by 10 panelists.
Based on the evaluation results, classification was conducted as shown below.
◯: total point of 10 panelists is 25 or more
Δ: total point of 10 panelists is 16 to 24
X: total point of 10 panelists is 15 or less
3: almost no change as compared with that immediately after preparation
2: coloration is observed as compared with that immediately after preparation
1: intense coloration is observed as compared with that immediately after preparation

Data set [4] is described as follows: Stability Test 2: 2% aqueous solution, pH7, 50° C., 4 weeks (residual rate, odor, coloration). The format is physicochemical. The procedure: as §1
The same test as in Test Example 2 was carried out excepting that the sample was stored at 50° C. for 4 weeks instead of storing at room temperature for 4 weeks.

Data set [5] deals with Normal human dermal fibroblasts. The data set can be described thus: Collagen production of human fibroblast (Sircol collagen assay, 100 μM, 48 hours). In kind it is cell-based. To be noted: Homo sapiens, Fibroblast, cultured 48 hours, N=4, read-out: Collagen production promoting effect (collagen production amount, % of control group). The procedure: (§2) Normal human dermal fibroblasts were regulated with a 10% (v/v) fetal bovine serum (manufactured by Roshe Diagnostics)-containing D-MEM so as to give a cell density of 2.5×10^4 cells/well, then, pre-incubation for 24 hours was performed on a 96-well plate. After the medium was removed, a sample regulated with a 5% (v/v) fetal bovine serum-containing D-MEM to a concentration of 100 μM was added to each well, then, cultured for 48 hours under 37° C. and 5% CO2. After completion of culturing, the amount of free collagen was measured using Sircol collagen assay kit (manufactured by Biocolor). The measurement was carried out at N=4.
The collagen production amount in measuring a sample at a concentration of 100 μM was compared with the control group, and the results thereof (% value when the control group is 100%) are shown in Tables 44 and 45 based on the following standard.

Data set [6] shares this test system. The experiment in a line: Collagen production of human fibroblast 2 (100 μM or 500 μM; 2, 4 and 7 days). The format is cell-based. To be noted: for Collagen production amount in comparison with the control group (% value when the control group is 100%): 100 μM or 500 μM (not stated which), average ± standard error, N=4. On the procedure:
as §2
Free collagen was measured under the same conditions as in Test Example 5 excepting that the concentration of each sample was 100 μM or 500 μM and culturing was carried out for 2 days, 4 days and 7 days. The measurement was carried out at N=4, and the average and standard error, in four test examples, of values of the collagen production amount in comparison with the control group (% value when the control group is 100%) are shown in Tables 46 and 47.

Where [7] appears, read: storage period 2 weeks, 10 panelists.
The mark [8] stands for this setting: storage period 4 weeks, 10 panelists.

Consider `OCC(O)CO` [glycerin, reference compound], for which the “Judgement of moisturizing effect (water amount)” value (“Judgement of moisturizing effect” for short) in data set [1] was “⊚ (⊚: 40 mg or more)”.
As for `CCCCCCCCOC1=C(OCC(O)CO)[C@@H]([C@@H](O)CO)OC1=O` (stereo partly shown) [Example 14, 3-O-glyceryl-2-O-octyl ascorbic acid], the “Whitening effect (melanine production suppressing rate)” value in data set [2] is “+++ (70 to 100%:+++)”. Besides, the Residual rate entry in data set [3] (storage period 0), in data set [3] (storage period 2 weeks), in data set [3] (storage period 4 weeks), in data set [4] (storage period 0), in data set [4] (storage period 2 weeks) and in data set [4] (storage period 4 weeks) was “⊚ (⊚: 90% or more)” throughout. Also, the Coloration entry in data set [3] (storage period 0, 10 panelists) is on record as “◯ (◯: total point of 10 panelists is 25 or more)”; in data set [3] (setting [7]), “◯ (◯: total point of 10 panelists is 25 or more)”; in data set [3] (setting [8]), “◯ (◯: total point of 10 panelists is 25 or more)”; in data set [4] (storage period 0, 10 panelists) it was “◯ (◯: total point of 10 panelists is 25 or more)”; in data set [4] (setting [7]), “◯ (◯: total point of 10 panelists is 25 or more)”; in data set [4] (setting [8]) it was “◯ (◯: total point of 10 panelists is 25 or more)”. For the same compound, the Odor result in data set [3] (storage period 0, 10 panelists) is “◯ (◯: total point of 10 panelists is 25 or more)”; in data set [3] (setting [7]), “◯ (◯: total point of 10 panelists is 25 or more)”; in data set [3] (setting [8]) it was “◯ (◯: total point of 10 panelists is 25 or more)”; in data set [4] (storage period 0, 10 panelists) it was “◯ (◯: total point of 10 panelists is 25 or more)”; in data set [4] (setting [7]), “◯ (◯: total point of 10 panelists is 25 or more)”; in data set [4] (setting [8]) it was “◯ (◯: total point of 10 panelists is 25 or more)”. In data set [5], the activity at 100 µM lay in the range of 100 to 200%. In addition, the “Collagen production amount in comparison with the control group (% value when the control group is 100%)” value in data set [6] (Table 47, culturing period 2 days) was 132 ± 22%; in data set [6] (Table 47, culturing period 4 days), 144 ± 9%; in data set [6] (Table 47, culturing period 7 days) it was 238 ± 17%.
With `O=C1O[C@H]([C@@H](O)CO)C(OCC(O)CO)=C1O` (stereo partly shown) [3-O-glycerylascorbic acid], the “Judgement of moisturizing effect” value in data set [1] is “◯ (◯: 25 mg or more and less than 40 mg)”.
In the case of `CCOC1=C(O)C(=O)O[C@@H]1[C@@H](O)CO` [3-O-ethylascorbic acid, reference compound], in data set [2], the “Whitening effect (melanine production suppressing rate)” value is on record as “+ (20 to 40%:+)”. In addition, the Residual rate result in data set [3] (storage period 0) was “⊚ (⊚: 90% or more)”; in data set [3] (storage period 2 weeks), “◯ (◯: 80% or more and less than 90%)”; in data set [3] (storage period 4 weeks), “◯ (◯: 80% or more and less than 90%)”; in data set [4] (storage period 0), “◯ (◯: 80% or more and less than 90%)”; in data set [4] (storage period 2 weeks), “X (X: 20% or more and less than 60%)”; in data set [4] (storage period 4 weeks), “X (X: 20% or more and less than 60%)”. The Coloration entry in data set [3] (storage period 0, 10 panelists) was “◯ (◯: total point of 10 panelists is 25 or more)”; in data set [3] (setting [7]) it was “◯ (◯: total point of 10 panelists is 25 or more)”; in data set [3] (setting [8]), “Δ (Δ: total point of 10 panelists is 16 to 24)”; in data set [4] (storage period 0, 10 panelists), “◯ (◯: total point of 10 panelists is 25 or more)”; in data set [4] (setting [7]) it was “Δ (Δ: total point of 10 panelists is 16 to 24)”; in data set [4] (setting [8]) it was “Δ (Δ: total point of 10 panelists is 16 to 24)”. Also, the Odor entry in data set [3] (storage period 0, 10 panelists) is on record as “◯ (◯: total point of 10 panelists is 25 or more)”; in data set [3] (setting [7]), “◯ (◯: total point of 10 panelists is 25 or more)”; in data set [3] (setting [8]), “◯ (◯: total point of 10 panelists is 25 or more)”; in data set [4] (storage period 0, 10 panelists), “◯ (◯: total point of 10 panelists is 25 or more)”; in data set [4] (setting [7]), “Δ (Δ: total point of 10 panelists is 16 to 24)”; in data set [4] (setting [8]) it was “Δ (Δ: total point of 10 panelists is 16 to 24)”. In addition, the activity at 100 µM in data set [5] was in the range of 100 to 200%. In addition, in data set [6] (100 μM or 500 μM, culturing 2, 4 and 7 days), the “collagen production promoting effect over time (in words)” value is “lowers over time”. Moreover, the “Collagen production amount in comparison with the control group (% value when the control group is 100%)” value in data set [6] (Table 46, culturing period 2 days) was determined as 140 ± 4%; in data set [6] (Table 46, culturing period 4 days), 138 ± 2%; in data set [6] (Table 46, culturing period 7 days), 106 ± 14%.
Take `O=C1O[C@H]([C@@H](O)CO)C(OCC(O)CO)=C1O` (stereo partly shown) [Example 1, 3-O-glyceryl ascorbic acid]: the “moisturizing effect (in words)” value in data set [1] (conclusion from Table 43, compared with ascorbic acid) was “more excellent moisturizing effect than ascorbic acid”.
As for 2,3-di-O-phenylglycerylascorbic acid, in data set [1], the “Judgement of moisturizing effect” value was “Δ (Δ: 10 mg or more and less than 25 mg)”.
On the same count and under the same terms, in the case of 3-O-butylglycerylascorbic acid it was “◯ (◯: 25 mg or more and less than 40 mg)”; in that of 3-O-octylglycerylascorbic acid, “Δ (Δ: 10 mg or more and less than 25 mg)”.
As to `O=C1O[C@H]([C@@H](O)CO)C(O)=C1OCC(O)CO` (stereo partly shown) [2-O-glycerylascorbic acid], in data set [1], the “Judgement of moisturizing effect” value is “⊚ (⊚: 40 mg or more)”.
For the compound `O=C1O[C@H]([C@@H](O)CO)C(OCC(O)CO)=C1OCC(O)CO` (stereo partly shown) [2,3-di-O-glycerylascorbic acid], the “Judgement of moisturizing effect” value in data set [1] is “⊚ (⊚: 40 mg or more)”.
